“And” between values parts separate entries of the source, which are not always exact repeats. Equal entries are not always repeated.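 Grown in 96-well plates, cells were treated for 48 hours with each compound at five concentrations. Insufficient inhibition: endpoint recorded as highest concentration tested. The concentration for 50% growth inhibition is given as GI50. The concentration for full growth arrest is given as TGI.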
Key:
Experiment in all cases: NCI tumour cell line growth inhibition, 48 h
[1] = tested on: UACC-257 melanoma
[2] = tested on: OVCAR-8 ovarian
[3] = tested on: HL-60(TB) leukemia
[4] = tested on: EKVX NSCLC
[5] = tested on: SK-MEL-5 melanoma
[6] = tested on: SN12C renal
[7] = tested on: ACHN renal
[8] = tested on: OVCAR-4 ovarian
[9] = tested on: SF-539 CNS
[10] = tested on: 786-0 renal

Row | Structure (SMILES) | GI50 [1] | TGI [1] | GI50 [2] | TGI [2] | GI50 [3] | TGI [3] | GI50 [4] | TGI [4] | GI50 [5] | TGI [5] | GI50 [6] | TGI [6] [µM] | GI50 [7] | TGI [7] | GI50 [8] | TGI [8] | GI50 [9] | TGI [9] | GI50 [10] | TGI [10]
1 | CC(C)NCCCCCNc1cc(O)cc2cccnc12 | 17.7 µM | > 75.1 µM | > 100 µM | > 100 µM | 0.751 µM | 4.36 µM | 22.8 µM | > 100 µM | 98.1 µM | > 100 µM | > 100 µM | > 100 | > 100 µM | > 100 µM | 4.14 µM | > 100 µM | > 100 µM | > 100 µM | > 100 µM | > 100 µM
2 | CCCC(=O)Nc1ncnc2c1ncn2C1OC2COP(=O)(O)OC2C1OC(=O)CCC (stereo not given) | > 1000 µM | > 1000 µM | > 1000 µM | > 1000 µM | – | > 1000 µM | > 1000 µM | > 1000 µM | > 1000 µM | > 1000 µM | > 1000 µM | > 1000 | > 1000 µM | > 1000 µM | > 1000 µM | > 1000 µM | – | > 1000 µM | > 1000 µM | > 1000 µM
3 | O=c1nc(-c2ccccc2)scc1-c1ccccc1 | – | > 100 µM | – | > 100 µM | – | > 100 µM | – | > 100 µM | – | > 100 µM | – | > 100 | – | > 100 µM | – | > 100 µM | – | > 100 µM | – | > 100 µM
4 | CCCN(CCC)c1ccc(/C=N/NC(=O)c2cccnc2)cc1 | 31 µM | > 100 µM | 31.3 µM | > 100 µM | 22.6 µM | 63.7 µM | 26.8 µM | > 100 µM | 18.2 µM | 42 µM | 40.4 µM | > 100 | 39.5 µM | > 100 µM | 35.4 µM | > 100 µM | 18.8 µM | 61.4 µM | 32.5 µM | 94.8 µM
5 | COc1ccc(NC(=O)CC(=O)n2nc(-c3ccccc3)c(N=Nc3ccccc3C)c2-c2ccccc2)cc1 | – | > 100 µM | – | 66 µM | – | > 100 µM | – | 45.2 µM | – | > 86.5 µM | – | > 88.5 | – | 63.7 µM | – | 59.5 µM | – | 28.8 µM | – | 35.5 µM
6 | CCNC(=O)c1ccc2c(c1)nc(-c1ccc(Cl)cc1)n2-c1cc(C(C)(C)C)[nH]n1 | 3.59 µM | 30.5 µM | 3.06 µM | 13.4 µM | 2.72 µM | 7.6 µM | 3.14 µM | > 100 µM | 1.54 µM | 5.72 µM | 3.79 µM | 70 | 3.48 µM | 13.2 µM | 5.43 µM | > 100 µM | 3 µM | 11 µM | 3.48 µM | 47.4 µM
7 | NCC(=O)NC(CO)C(=O)O (stereo not given) | – | > 100 µM | – | > 100 µM | – | > 100 µM | – | > 100 µM | – | > 100 µM | – | > 100 | – | > 100 µM | – | > 100 µM | – | > 100 µM | – | > 100 µM
8 | CC1=C2[C@@H](c3ccccc3)C3C=CC2(c2ccccc23)N(C(=O)Nc2cccc3ccccc23)C1=O (stereo not given in full) | – | > 100 µM | – | > 100 µM | – | > 100 µM | – | > 100 µM | – | > 100 µM | – | > 100 | – | > 100 µM | – | > 100 µM | – | > 100 µM | – | > 100 µM
9 | COc1cccc2cc(-c3nc(C4CCC(C(=O)O)CC4)n4ncnc(N)c34)[nH]c12 (stereo not given) | 0.198 µM and 0.378 µM | 2.1 µM and 4.19 µM | 0.371 µM and 0.642 µM | 3.78 µM and > 10 µM | 3.13 µM and > 3.55 µM | 25.7 µM and > 10 µM | 0.478 µM and 1.03 µM | 5.13 µM and > 10 µM | 0.313 µM and 0.79 µM | 4.19 µM and 5.7 µM | 0.203 µM and 0.413 µM | > 100 | 0.42 µM and 1.03 µM | 15.5 µM and > 10 µM | 0.155 µM and 0.288 µM | 2 µM and 3.28 µM | 0.309 µM and 0.516 µM | 2.71 µM and 4.09 µM | 0.344 µM and 0.488 µM | 6.57 µM and 5.44 µM
10 | CNC(=O)OCc1cc2ccncc2c2c1[nH]c1ccccc12 | – | > 100 µM | – | > 100 µM | – | > 100 µM | – | > 100 µM | – | > 100 µM | – | > 100 | – | > 100 µM | – | > 100 µM | – | > 100 µM | – | > 100 µM
11 | N#Cc1nc(Nc2ccc(Cl)cc2)sc1N | – | 31.1 µM | – | > 79.4 µM | – | > 76.7 µM | – | 83.2 µM | – | 6.41 µM | – | > 69.1 | – | 23.6 µM | – | > 72.5 µM | – | 9.46 µM | – | 33.7 µM
12 | O=[N+]([O-])c1ccc(NN=C2c3ccccc3Cc3ccccc32)c([N+](=O)[O-])c1 | – | > 100 µM | – | > 100 µM | – | > 30 µM | – | > 100 µM | – | > 100 µM | – | > 100 | – | > 100 µM | – | > 100 µM | – | > 100 µM | – | > 100 µM
13 | Nc1nc(Cl)nc2c1ncn2C1CCC(COP(=O)(O)OP(=O)(O)OP(=O)(O)O)O1 (stereo not given) | – | > 100 µM | – | 51.9 µM | – | 63.7 µM | – | > 100 µM | – | – | – | > 100 | – | > 100 µM | – | 77.8 µM | – | > 100 µM | – | > 100 µM
14 | COc1cc(CCNc2nc3cc(N)cc(N)c3nc2-c2ccccc2)cc(OC)c1 | 1.76 µM | 3.61 µM | – | – | 1.25 µM | 3.33 µM | 1.8 µM | 3.4 µM | 1.79 µM | 3.36 µM | 1.67 µM | 3.12 | 1.8 µM | 3.27 µM | 1.21 µM | 2.54 µM | 2.19 µM | 4.14 µM | 2 µM | 3.99 µM
